Test results published in patent publication US12097174B2, “Methods and agents that enhance myogenic progenitor cell engraftment” (President and Fellows of Harvard College, priority 2018, dated 2024).
“Also recorded” adds a separate entry of the source.

How the values were obtained:
mouse satellite cells = assay: Calcium imaging in Fluo-4 AM-loaded mouse satellite cells (AUC of signal intensity); format: cell-based; settings: 1-5 μM of LPA, 2.5-10 μM of NFA; 1,500 cells/well
Protocol: First, to establish optimal conditions, cells were sorted by FACS into 384 well plates at 10,000, 5,000, 1,500, or 500 cells per well, with 8 replicates for each cell density. […] Cells were again incubated with Fluo4 AM for 45 minutes at 37° C. followed by imaging. Different concentrations of LPA, NFA, or both compounds combined, along with DMSO (vehicle control) and ionomycin (direct calcium ionophore), were added 60 seconds after the beginning of imaging to quantify both baseline calcium ion concentrations and calcium flux in response to the different treatment conditions. Calcium concentrations were calculated as area under the curve (AUC) of signal intensity and compared these values across different concentrations of each compound (FIG. 25A).
Satellite cells were isolated from wild-type mice (FVB/NJ) and sorted into 384 well plates in culture media. The cells were incubated overnight at 37° C. The next day, the cells were incubated with Fluo-4 AM (Thermo Fisher Sci F14201), a fluorescent calcium ion indicator, for 45 minutes at 37° C., followed by imaging of the entire plate with the FDSS 7000 ex functional drug screening system (Hamamatsu) in the BCH assay development and screening facility.

[1] = tested on: sapje-like (sap^c/100) fish; assay: Swimming performance of sapje-like fish before and after transplantation of treated ZeMPCs; format: in vivo, zebrafish; settings: cells treated before transplant; tested 7 days after transplant, flow about 5.5 L/min
Protocol: Finally, to assess the functionality of myogenic precursors exposed to NFA and/or LPA prior to muscle engraftment, the swimming performance of sapje-like fish was evaluated before and after transplantation. […] Recipient sapje-like fish were irradiated and injected with healthy ZeMPCs, exposed prior to transplant to NFA, LPA or vehicle alone, on both flanks at 3 dorsal points on each side-in the tail, beneath the dorsal fin, and in the trunk-with 25 cells per injection. Immediately prior to transplant, and again 7 days after transplant, muscle function was tested in a modified Blazka-type swim chamber, in which a flow rate of approximately 5.5 L/min was introduced to test swimming performance (FIG. 16A). […] Because only the treated cells were transplanted, after removal of the compounds, it was concluded from these studies that the swimming performance of these transplanted sapje-like fish was improved as a result of better engraftment by NFA-treated or LPA-treated ZeMPCs. Juvenile zebrafish from a sapje-like transgenic line were fin-clipped and genotyped to identify heterozygotes. A flow-through modified Blazka-type swim chamber was creating using a horizontal acrylic tank with dimensions of 350 mm 1×47 mm w×90 mm d. […] The raw digital file was then analyzed for movement within the swim area. The distance from the flow source was quantified using MATLAB (MathWorks).

ZeMPCs = assay: RNA sequencing of treated ZeMPCs; format: cell-based, zebrafish
Excerpt: To gain insight into the mechanisms through which LPA and NFA treatment might enhance donor cell engraftment in vertebrate muscle, RNA sequencing analysis were next performed in treated ZeMPCs and in mouse satellite cells. Comparison of differential gene expression in NFA-treated or LPA-treated cells to vehicle-treated cells indicated upregulation of calcium-dependent genes in response to these compounds in both ZeMPCs (FIG. 21) and mouse satellite cells (FIGS. 15A and 15B).
Isolated mouse muscle satellite cells and ZeMPCs were used to prepare RNA after in vitro chemical treatment. Total RNA was isolated by the micro RNeasy kit (QIAGEN). cDNA was prepared using SMART Seq v4 Ultra Low RNA-Seq kit for 48 reactions (Takara) and a Nextera kit was used for library construction. Sequencing data FASTQ files for samples were processed in tophat-cufflinks workflow in a Linux server operating system to output gene-level abundance estimates and statistical inference as gene-level raw counts. Those raw counts for samples were input into the cuffdiff for differential gene expression analysis. The assigned GEO accession number for the RNA sequencing data is GSE143801.

## lysophosphatidic acid [LPA]
Mouse satellite cells
  calcium ion concentrations (AUC of signal intensity) relative to vehicle-treated controls: increased significantly
[1]
  swimming performance vs fish engrafted with vehicle-treated cells: better swimming performance; also recorded: performed significantly better
ZeMPCs
  expression of calcium-dependent genes vs vehicle-treated cells: upregulation

## O=C(O)c1cccnc1Nc1cccc(C(F)(F)F)c1 [NFA, niflumic acid]
Mouse satellite cells
  calcium ion concentrations (AUC of signal intensity) relative to vehicle-treated controls: increased significantly
[1]
  swimming performance vs fish engrafted with vehicle-treated cells: better swimming performance; also recorded: performed significantly better
ZeMPCs
  expression of calcium-dependent genes vs vehicle-treated cells: upregulation
